Reference: the kinase profiling compilation of Christmann-Franck et al. (2016)

Legend:
Assay in all cases: radiometric filter-binding kinase assay, Kinase HotSpot
Details in all cases: compound 0.5 µM; ATP 10 µM
[1] = target: HIPK4 (human) (UniProt Q8NE63)
[2] = target: EPHA2 (human) (UniProt P29317)
[3] = target: ACVRL1 (human) (UniProt P37023)
[4] = target: RPS6KA1 KD1 KD2 (human) (UniProt Q15418)
[5] = target: SGK2 (human) (UniProt Q9HBY8)
[6] = target: PHKG2 (human) (UniProt P15735)
[7] = target: RPS6KA5 KD2 (human) (UniProt O75582)
[8] = target: FGFR4 (human) (UniProt P22455)
[9] = target: CSNK2A1 (human) (UniProt P68400)
[10] = target: PRKX (human) (UniProt P51817)
[11] = target: NLK (human) (UniProt Q9UBE8)
NLK (human), sequence (Q9UBE8 whole entry, looked up): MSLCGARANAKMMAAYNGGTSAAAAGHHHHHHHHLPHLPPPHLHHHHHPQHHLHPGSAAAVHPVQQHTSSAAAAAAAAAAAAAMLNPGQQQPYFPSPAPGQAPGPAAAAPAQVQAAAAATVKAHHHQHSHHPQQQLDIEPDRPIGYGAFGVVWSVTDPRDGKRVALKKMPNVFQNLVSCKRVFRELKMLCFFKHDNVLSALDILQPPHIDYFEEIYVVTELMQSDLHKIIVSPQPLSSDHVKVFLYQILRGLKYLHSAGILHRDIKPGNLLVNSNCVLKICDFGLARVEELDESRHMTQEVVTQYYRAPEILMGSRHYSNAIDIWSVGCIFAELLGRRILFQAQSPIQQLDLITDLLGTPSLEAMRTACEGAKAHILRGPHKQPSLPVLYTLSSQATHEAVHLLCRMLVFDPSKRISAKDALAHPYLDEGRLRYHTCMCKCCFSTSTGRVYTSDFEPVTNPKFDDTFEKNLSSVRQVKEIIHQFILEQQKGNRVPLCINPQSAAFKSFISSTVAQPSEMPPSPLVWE

[12] = target: AKT1 (human) (UniProt P31749)
[13] = target: DCLK2 (human) (UniProt Q8N568)
DCLK2 (human), sequence (Q8N568 whole entry, looked up): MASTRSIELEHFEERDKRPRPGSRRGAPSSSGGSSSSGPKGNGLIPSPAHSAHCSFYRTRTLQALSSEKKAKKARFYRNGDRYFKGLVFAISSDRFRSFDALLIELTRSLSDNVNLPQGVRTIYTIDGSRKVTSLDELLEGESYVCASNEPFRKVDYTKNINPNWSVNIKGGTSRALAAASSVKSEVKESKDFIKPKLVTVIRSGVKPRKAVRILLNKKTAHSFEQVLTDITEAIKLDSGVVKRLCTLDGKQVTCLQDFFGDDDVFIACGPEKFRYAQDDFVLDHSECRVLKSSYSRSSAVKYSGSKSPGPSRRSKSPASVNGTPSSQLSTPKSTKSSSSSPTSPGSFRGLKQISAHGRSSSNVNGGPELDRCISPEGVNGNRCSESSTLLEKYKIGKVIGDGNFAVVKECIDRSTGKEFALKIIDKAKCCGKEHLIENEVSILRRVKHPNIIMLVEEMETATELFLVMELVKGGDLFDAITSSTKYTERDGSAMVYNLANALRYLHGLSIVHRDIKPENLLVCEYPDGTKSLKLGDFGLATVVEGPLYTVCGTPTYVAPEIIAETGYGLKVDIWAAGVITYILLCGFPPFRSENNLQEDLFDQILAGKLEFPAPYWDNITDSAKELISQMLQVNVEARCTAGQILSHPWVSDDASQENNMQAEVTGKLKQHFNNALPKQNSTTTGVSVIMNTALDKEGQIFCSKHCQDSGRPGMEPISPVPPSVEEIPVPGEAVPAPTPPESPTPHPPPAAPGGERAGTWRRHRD

[14] = target: MAPK12 (human) (UniProt P53778)
MAPK12 (human), sequence (P53778 whole entry, looked up): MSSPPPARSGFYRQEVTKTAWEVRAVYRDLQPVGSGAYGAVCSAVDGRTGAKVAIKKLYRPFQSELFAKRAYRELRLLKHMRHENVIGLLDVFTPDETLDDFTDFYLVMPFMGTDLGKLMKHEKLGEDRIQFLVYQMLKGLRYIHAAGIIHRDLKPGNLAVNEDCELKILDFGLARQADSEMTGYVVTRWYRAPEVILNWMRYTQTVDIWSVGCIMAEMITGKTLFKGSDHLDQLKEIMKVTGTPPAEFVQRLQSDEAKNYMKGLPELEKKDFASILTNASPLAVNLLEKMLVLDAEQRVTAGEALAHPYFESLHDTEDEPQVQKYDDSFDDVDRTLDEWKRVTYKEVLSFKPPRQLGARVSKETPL

[15] = target: PRKD1 (human) (UniProt Q15139)
[16] = target: TNK2 (human) (UniProt Q07912)
[17] = target: CHEK2 (human) (UniProt O96017)
[18] = target: EPHA4 (human) (UniProt P54764)
[19] = target: STK17A (human) (UniProt Q9UEE5)
STK17A (human), sequence (Q9UEE5 whole entry, looked up): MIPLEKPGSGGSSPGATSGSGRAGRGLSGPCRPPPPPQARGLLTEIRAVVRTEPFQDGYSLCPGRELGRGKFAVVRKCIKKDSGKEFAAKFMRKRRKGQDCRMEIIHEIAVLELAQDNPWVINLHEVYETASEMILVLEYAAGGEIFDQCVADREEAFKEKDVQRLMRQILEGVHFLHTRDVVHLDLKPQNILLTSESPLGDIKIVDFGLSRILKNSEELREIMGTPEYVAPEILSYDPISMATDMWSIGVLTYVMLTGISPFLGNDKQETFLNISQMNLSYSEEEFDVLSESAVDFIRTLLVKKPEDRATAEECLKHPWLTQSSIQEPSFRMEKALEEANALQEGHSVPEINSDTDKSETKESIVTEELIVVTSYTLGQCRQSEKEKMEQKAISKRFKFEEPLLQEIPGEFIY

[20] = target: CAMK1 (human) (UniProt Q14012)
CAMK1 (human), sequence (Q14012 whole entry, looked up): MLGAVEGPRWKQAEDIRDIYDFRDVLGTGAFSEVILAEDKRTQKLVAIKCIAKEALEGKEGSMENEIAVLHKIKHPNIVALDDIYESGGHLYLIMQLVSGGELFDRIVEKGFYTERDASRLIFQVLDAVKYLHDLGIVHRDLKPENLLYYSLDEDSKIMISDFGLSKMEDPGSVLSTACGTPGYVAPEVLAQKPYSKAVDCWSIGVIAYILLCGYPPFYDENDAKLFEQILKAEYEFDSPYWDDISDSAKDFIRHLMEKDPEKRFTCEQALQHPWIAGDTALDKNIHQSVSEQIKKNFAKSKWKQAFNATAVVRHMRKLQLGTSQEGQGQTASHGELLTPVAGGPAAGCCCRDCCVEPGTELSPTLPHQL

[21] = target: ULK2 (human) (UniProt Q8IYT8)
[22] = target: JAK1 JH1 catalytic (human) (UniProt P23458)
[23] = target: MAP3K3 (human) (UniProt Q99759)
[24] = target: WNK3 (human) (UniProt Q9BYP7)
[25] = target: ALK (human) (UniProt Q9UM73)
[26] = target: RPS6KA2 KD1 KD2 (human) (UniProt Q15349)
RPS6KA2 KD1 KD2 (human), sequence (Q15349 whole entry, looked up): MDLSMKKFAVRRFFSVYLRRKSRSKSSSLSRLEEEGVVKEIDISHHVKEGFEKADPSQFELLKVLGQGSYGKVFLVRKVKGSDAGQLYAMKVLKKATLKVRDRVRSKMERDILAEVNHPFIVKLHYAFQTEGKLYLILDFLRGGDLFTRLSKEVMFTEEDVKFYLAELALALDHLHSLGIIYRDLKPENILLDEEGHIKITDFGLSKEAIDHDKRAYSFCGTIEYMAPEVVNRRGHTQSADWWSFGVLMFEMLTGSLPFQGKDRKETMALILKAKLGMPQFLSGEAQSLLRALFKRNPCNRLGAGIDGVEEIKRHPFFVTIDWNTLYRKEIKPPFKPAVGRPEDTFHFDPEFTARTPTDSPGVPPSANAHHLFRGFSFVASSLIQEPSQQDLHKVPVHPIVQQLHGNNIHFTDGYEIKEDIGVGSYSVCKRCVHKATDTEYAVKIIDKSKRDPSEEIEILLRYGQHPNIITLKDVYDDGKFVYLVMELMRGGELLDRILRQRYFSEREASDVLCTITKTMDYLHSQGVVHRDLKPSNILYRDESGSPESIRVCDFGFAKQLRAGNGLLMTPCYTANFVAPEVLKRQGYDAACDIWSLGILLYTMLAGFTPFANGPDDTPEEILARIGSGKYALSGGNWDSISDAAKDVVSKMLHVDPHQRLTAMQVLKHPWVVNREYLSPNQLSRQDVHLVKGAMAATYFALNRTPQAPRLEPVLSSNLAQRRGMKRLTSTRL

[27] = target: DYRK1B (human) (UniProt Q9Y463)
[28] = target: PIM1 (human) (UniProt P11309)
[29] = target: PRKCB1 (human) (UniProt P05771)
[30] = target: MAPK11 (human) (UniProt Q15759)
[31] = target: MAP4K5 (human) (UniProt Q9Y4K4)
MAP4K5 (human), sequence (Q9Y4K4 whole entry, looked up): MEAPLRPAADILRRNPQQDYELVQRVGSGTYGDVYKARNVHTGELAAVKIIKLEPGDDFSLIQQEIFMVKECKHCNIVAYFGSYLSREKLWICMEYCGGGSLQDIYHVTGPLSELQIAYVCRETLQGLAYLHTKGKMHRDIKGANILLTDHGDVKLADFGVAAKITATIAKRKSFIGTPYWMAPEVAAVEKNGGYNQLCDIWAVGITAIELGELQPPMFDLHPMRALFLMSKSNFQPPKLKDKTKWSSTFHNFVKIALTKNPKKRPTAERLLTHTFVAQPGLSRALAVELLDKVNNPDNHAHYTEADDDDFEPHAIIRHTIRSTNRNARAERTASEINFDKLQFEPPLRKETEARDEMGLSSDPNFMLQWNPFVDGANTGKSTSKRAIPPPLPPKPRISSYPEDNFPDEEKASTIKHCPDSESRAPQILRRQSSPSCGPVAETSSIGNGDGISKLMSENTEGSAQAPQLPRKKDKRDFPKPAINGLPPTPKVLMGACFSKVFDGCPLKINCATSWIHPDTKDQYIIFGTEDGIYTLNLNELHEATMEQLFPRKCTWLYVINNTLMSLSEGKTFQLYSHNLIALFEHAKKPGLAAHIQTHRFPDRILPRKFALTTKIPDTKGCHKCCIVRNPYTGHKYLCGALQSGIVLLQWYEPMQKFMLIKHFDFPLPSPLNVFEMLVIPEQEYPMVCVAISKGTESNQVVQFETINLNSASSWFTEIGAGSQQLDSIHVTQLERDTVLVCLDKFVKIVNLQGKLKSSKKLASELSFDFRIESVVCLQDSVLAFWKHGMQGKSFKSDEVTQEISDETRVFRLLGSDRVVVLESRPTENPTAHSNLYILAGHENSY

[32] = target: TEK (human) (UniProt Q02763)
[33] = target: CSNK1G1 (human) (UniProt Q9HCP0)
[34] = target: CAMK4 (human) (UniProt Q16566)
[35] = target: MAP3K8 (human) (UniProt P41279)
MAP3K8 (human), sequence (P41279 whole entry, looked up): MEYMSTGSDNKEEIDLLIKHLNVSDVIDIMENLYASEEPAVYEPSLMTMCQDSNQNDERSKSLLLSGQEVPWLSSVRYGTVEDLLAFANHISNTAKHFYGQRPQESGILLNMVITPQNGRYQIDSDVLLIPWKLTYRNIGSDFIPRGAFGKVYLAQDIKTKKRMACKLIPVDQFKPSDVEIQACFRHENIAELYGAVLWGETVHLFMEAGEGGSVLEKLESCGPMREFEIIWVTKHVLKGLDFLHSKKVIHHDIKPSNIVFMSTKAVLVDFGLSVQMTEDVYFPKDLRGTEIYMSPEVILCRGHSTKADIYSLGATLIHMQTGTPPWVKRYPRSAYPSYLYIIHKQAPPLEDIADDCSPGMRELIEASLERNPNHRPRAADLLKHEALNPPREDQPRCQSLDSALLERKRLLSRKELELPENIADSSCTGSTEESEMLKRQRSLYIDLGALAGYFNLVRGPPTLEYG

[36] = target: TXK (human) (UniProt P42681)
[37] = target: DYRK3 (human) (UniProt O43781)
[38] = target: CDC42BPB (human) (UniProt Q9Y5S2)
[39] = target: PAK2 (human) (UniProt Q13177)
[40] = target: MET (human) (UniProt P08581)
[41] = target: CDK2 CCNA2 (human) (UniProt P24941+P20248)

SGK2 (human), sequence (Q9HBY8 whole entry, looked up): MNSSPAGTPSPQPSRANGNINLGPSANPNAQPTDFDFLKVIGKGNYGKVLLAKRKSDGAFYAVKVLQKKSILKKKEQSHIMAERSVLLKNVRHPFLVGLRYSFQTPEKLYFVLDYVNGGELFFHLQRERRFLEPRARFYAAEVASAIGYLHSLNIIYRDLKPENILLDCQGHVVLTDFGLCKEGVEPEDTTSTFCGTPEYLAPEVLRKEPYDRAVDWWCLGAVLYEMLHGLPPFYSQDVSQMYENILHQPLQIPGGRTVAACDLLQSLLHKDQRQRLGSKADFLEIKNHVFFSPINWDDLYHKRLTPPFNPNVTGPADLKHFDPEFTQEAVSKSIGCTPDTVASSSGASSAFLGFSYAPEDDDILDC

| SMILES | residual activity [1] [%] | residual activity [2] [%] | residual activity [3] [%] | residual activity [4] [%] | residual activity [5] [%] | residual activity [6] [%] | residual activity [7] [%] | residual activity [8] [%] | residual activity [9] [%] | residual activity [10] [%] | residual activity [11] [%] | residual activity [12] [%] | residual activity [13] [%] | residual activity [14] [%] | residual activity [15] [%] | residual activity [16] [%] | residual activity [17] [%] | residual activity [18] [%] | residual activity [19] [%] | residual activity [20] [%] | further results |
| --- | --- | --- | --- | --- | --- | --- | --- | --- | --- | --- | --- | --- | --- | --- | --- | --- | --- | --- | --- | --- | --- |
| O=S(=O)(c1cccc2cnccc12)N1CCCNCC1 | 103 | 102 | 111 | 89.2 | 91.9 | 95.4 | 62.1 | 82.8 | 94.9 | 23.5 | 97.3 | 99.3 | 83.9 | 99.3 | 65.1 | 89.4 | 98.9 | 98.5 | 98.2 | 99.4 | residual activity [21]: 101%; residual activity [22]: 111%; residual activity [23]: 89.3%; residual activity [24]: 98.1%; residual activity [25]: 119%; residual activity [26]: 79.9%; residual activity [27]: 96.3%; residual activity [28]: 77%; residual activity [29]: 94.6%; residual activity [30]: 91.9%; residual activity [31]: 36.3%; residual activity [32]: 98.4%; residual activity [33]: 89.6%; residual activity [34]: 92.9%; residual activity [35]: 91.8%; residual activity [36]: 84.1%; residual activity [37]: 89.1% |
| CC(=O)c1ccc(N2CCOCC2)cc1O | 101 | 107 | 103 | 92.4 | 101 | 98.1 | 105 | 108 | 101 | 105 | 95.6 | 103 | 101 | 78.7 | 102 | 101 | 104 | 101 | 95.9 | 102 | residual activity [38]: 87.2%; residual activity [39]: 98.8%; residual activity [40]: 122%; residual activity [41]: 99.3%; residual activity [21]: 114%; residual activity [22]: 104%; residual activity [23]: 108%; residual activity [25]: 106%; residual activity [26]: 98.6%; residual activity [27]: 99.9%; residual activity [28]: 97.2%; residual activity [29]: 96.3%; residual activity [30]: 99.8%; residual activity [31]: 102%; residual activity [32]: 101%; residual activity [33]: 91.8%; residual activity [34]: 93%; residual activity [35]: 99.4%; residual activity [36]: 103%; residual activity [37]: 93.9% |
| CCN(CC)C(=O)c1ccc(Nc2nc(OCC3CCCCC3)c3nc[nH]c3n2)cc1 | 96.5 | 90.6 | 106 | 57.1 | 94.4 | 96.6 | 89.8 | 94.4 | 87.4 | 93.4 | 94.5 | 98.8 | 97.3 | 99.4 | 62.6 | 21.4 | 71.3 | 86.7 | 59.8 | 85.6 | residual activity [38]: 99.3%; residual activity [40]: 85.3%; residual activity [41]: 55.8%; residual activity [21]: 84.9%; residual activity [22]: 51.8%; residual activity [23]: 47.3%; residual activity [24]: 80.6%; residual activity [25]: 74.9%; residual activity [26]: 30.9%; residual activity [27]: 90.2%; residual activity [28]: 95.6%; residual activity [29]: 103%; residual activity [30]: 85.5%; residual activity [31]: 78%; residual activity [32]: 95.4%; residual activity [33]: 68.5%; residual activity [34]: 97.7%; residual activity [35]: 101%; residual activity [36]: 46%; residual activity [37]: 97.6% |
